According to patent publication US11708318B2, “Polymorphic forms of RAD1901-2HCL” (Radius Pharmaceuticals, Inc., priority 2017, dated 2023):
“Also recorded” adds a separate entry of the source. Blank lines part the entries; values can stand above or below the compound they belong to.

Key:
Type in all cases: physicochemical
[1] = Gravimetric Vapour Sorption (GVS), with XRPD of the recovered sample; conditions: for Hygroscopicity (GVS): 0-90% RH
Experimental: Sorption isotherms were obtained using a SMS DVS Intrinsic moisture sorption analyzer, controlled by DVS Intrinsic Control software v1.0.1.2 (or v 1.0.1.3). The sample temperature was maintained at 25° C. by the instrument controls. The humidity was controlled by mixing streams of dry and wet nitrogen, with a total flow rate of 200 ml/min. The relative humidity was measured by a calibrated Rotronic probe (dynamic range of 1.0-100% RH), located near the sample. The weight change, (mass relaxation) of the sample as a function of % RH was constantly monitored by the microbalance (accuracy ±0.005 mg).
A sample (e.g., 20 mg) was placed in a tared mesh stainless steel basket under ambient conditions. The sample was loaded and unloaded at 40% RH and 25° C. (typical room conditions). A moisture sorption isotherm was performed as outlined below (2 scans giving 1 complete cycle). Standard isotherms were performed at 25° C. at 10% RH intervals over a 0-90% RH range. Data analysis was carried out using Microsoft Excel using DVS Analysis Suite v6.2 (or 6.1 or 6.0).
In a cycle of 2 scans, the first scan was performed with adsorption of 40-90% RH, followed by a second scan with desorption of 90-0% RH and adsorption of 0-40% RH, with intervals of 10% RH, at 25° C. with stability dm/dt of 0.002% ° C./min. The sorption time was 6 hr time out.
The sample was recovered after completion of the isotherm and re-analyzed by XRPD. Custom moisture sorption methods were also performed at 25° C. at fixed % RH intervals over a 0-95% RH range, with the purpose to fully understand the sorption/desorption behavior of the compound under elevated conditions.
To further explore the humidity behavior of Sample 1 (Form 1) upon exposure to high RH (>90%), custom GVS experiments were designed and carried out. Initially, the sample was treated by holding at 90 and then 95% RH for ˜12 hours to see if hydrate formation could be observed (HighRH method of Steps 1 and 2 of Table 2, FIGS. 6C-6D).
To test the stability of the hydrated state, GVS method HighRH_Desorp_3 was designed with a desorption step and subsequent adsorption (see Table 2 with steps 1-4, FIGS. 6E-6F).
Finally, to ensure complete conversion to the anhydrous and hydrated forms, a GVS experiment was designed to increase both the length of the desorption step at 0% RH, and the adsorption step at 95% RH, respectively (Table 3). Based on the weight stabilization observed in the kinetic plots for Sample 1 in HighRH and HighRH_Desorp_3 methods discussed above (FIGS. 6D and 6F), a holding time of 800 mins at 0% RH and 1600 mins at 95% RH were chosen. A double cycle was also recorded for this experiment to observe whether the sample would return to Form 1 or form a mixed anhydrous/hydrated species (see Table 3, FIGS. 6G-6H).

[2] = Storage at elevated temperature/humidity, analysed by XRPD
Experimental: Samples 1 and 2 were characterized by XRPD at various conditions. XRPD patterns were collected for the samples at ambient condition as the samples were provided; at variable temperature (VT-XRPD); at variable humidity (VH-XRPD); after the samples were exposed to 40° C./75% RH for 1 week and 25° C./97% RH for 1 week, respectively; and after a GVS measurement wherein the samples were exposed to 0-90% RH. Samples 1 and 2 were also characterized by ^1H NMR, TGA, DSC, KF, IC, GVS (exposed to 0-90% RH), PLM, SEM, and HPLC (Table 5).

[3] = Solubility assessment of amorphous RAD1901-2HCl; conditions: thermodynamic from solid, read-out: Solubility assessment 10 vol.
Experimental: In a scale-up preparation of amorphous RAD1901-2HCl, RAD1901-2HCl (600 mg) was dissolved in water (20 vol., 12 mL) and filtered to remove any remaining solid particles. The solution was then aliquoted into 24 HPLC vials, frozen in a dry ice/acetone bath and the solvent removed by lyophilisation. Solids produced by lyophilization were used directly in solubility assessment and polymorph screens in Example 4.
Amorphous RAD1901-2HCl prepared as described in Example 3B was used directly in solubility assessment and polymorph screens (Table 15). XRPD patterns were further obtained for amorphous RAD1901-2HCl prepared using other solvents.

[4] = Solubility assessment of amorphous RAD1901-2HCl in water/organic solvent system; conditions: organic solvent or mixture, thermodynamic from solid
Experimental: Samples of amorphous RAD1901-2HCl were prepared in water/organic solvent mixtures containing varying ratios of water. The organic solvents chosen were anhydrous ethanol, methanol and ethyl acetate. The percentage of water in the water/organic solvent mixtures was varied between 0 and 10% (v/v) in order to place a limit on the level of water that can be present during production processes, and to retain formation of Form 1. Above this water activity limit, the hydrated Form 3 will be obtained, as shown by GVS experiments (see FIGS. 6G and 20A). It should be noted that samples prepared in ethyl acetate, were either slurried in anhydrous ethyl acetate, or in water saturated ethyl acetate.
The water activity values for each water/organic solvent mixture are provided in Table 16, and were calculated using the reference given in Bell, Halling, Enzyme Microbiol. Technol. 1997, 20, 471, incorporated herein by reference.

XRPD post GVS (uptake 0-90% RH) ([1]; after exposure to 0-90% RH): stable; also recorded: No changes
Hygroscopicity compared with Form 2 ([1]; than Form 2): lower hygroscopicity
XRPD after storage at 40° C./75% RH for 1 week ([2]; 40° C./75% RH, 1 week): stable
Solid form on prolonged exposure to high RH (>90%) ([2]; high RH (>90%), e.g. for 7 days): converted to the hydrate Form 3
Stability of the polymorphic form (overall characterization) ([2]; relative to heat and/or humidity): stable
Compound: CCNCCc1ccc(CN(CC)c2cc(OC)ccc2[C@@H]2CCc3cc(O)ccc3C2)cc1.Cl.Cl [Form 1]
Hygroscopicity (GVS) [1]: relatively non-hygroscopic; also recorded: low hygroscopicity
Solid form on exposure to high RH (>90%) by GVS ([1]; above 90% RH): irreversibly converted to the hydrate Form 3; also recorded: started converting to the hydrate Form 3
XRPD after storage at 25° C./97% RH for 1 week ([2]; 25° C./97% RH, 1 week): converted to Form 3; also recorded: conversion towards a hydrated state Form 3

Hygroscopicity (GVS) [1]: hygroscopic
Solid form after exposure to >40% RH for 7 days ([2]; >40% RH, 7 days): Form 3
Compound: CCNCCc1ccc(CN(CC)c2cc(OC)ccc2[C@@H]2CCc3cc(O)ccc3C2)cc1.Cl.Cl [Form 2]

Solid form after exposure to <40% RH for 8 hr ([2]; <40% RH, 8 hr): Form 2
Compound: CCNCCc1ccc(CN(CC)c2cc(OC)ccc2[C@@H]2CCc3cc(O)ccc3C2)cc1.Cl.Cl [Form 3]

solubility ([3]; organic solvent or mixture, 1,2-dimethoxyethane, sample ID B16): < 100 mg/mL
solubility ([3]; organic solvent or mixture, 1,4-Dioxane, sample ID B14): < 100 mg/mL
solubility ([3]; organic solvent or mixture, 1-propanol, sample ID B8): < 100 mg/mL
solubility ([3]; organic solvent or mixture, 2-propanol, sample ID B6): < 100 mg/mL
solubility ([3]; organic solvent or mixture, 10% water/EtOH, sample ID B22): > 100 mg/mL
solubility ([3]; organic solvent or mixture, 10% water/IPA, sample ID B23): < 100 mg/mL
solubility ([3]; organic solvent or mixture, 10% water/THF, sample ID B24): < 100 mg/mL
solubility ([3]; organic solvent or mixture, Acetone, sample ID B9): < 100 mg/mL
solubility ([3]; organic solvent or mixture, Acetonitrile, sample ID B20): < 100 mg/mL
solubility ([3]; organic solvent or mixture, Dichloromethane, sample ID B18): < 100 mg/mL
solubility ([3]; organic solvent or mixture, Dimethyl sulfoxide, sample ID B11): > 100 mg/mL
solubility ([3]; organic solvent or mixture, Ethanol, sample ID B10): < 100 mg/mL
solubility ([3]; organic solvent or mixture, Ethyl acetate, sample ID B3): < 100 mg/mL
solubility ([3]; organic solvent or mixture, Isopropyl acetate, sample ID B4): < 100 mg/mL
solubility ([3]; organic solvent or mixture, MEK, sample ID B7): < 100 mg/mL
solubility ([3]; organic solvent or mixture, MIBK, sample ID B5): < 100 mg/mL
solubility ([3]; organic solvent or mixture, Methanol, sample ID B19): < 100 mg/mL
solubility ([3]; organic solvent or mixture, Nitromethane, sample ID B21): < 100 mg/mL
solubility ([3]; organic solvent or mixture, Propyl acetate, sample ID B2): < 100 mg/mL
solubility ([3]; organic solvent or mixture, TBME, sample ID B13): < 100 mg/mL
solubility ([3]; organic solvent or mixture, Tetrahydrofuran, sample ID B17): < 100 mg/mL
solubility ([3]; organic solvent or mixture, Toluene, sample ID B15): < 100 mg/mL
solubility ([3]; organic solvent or mixture, n-Heptane, sample ID B1): < 100 mg/mL
solubility ([3]; Water, sample ID B12): > 100 mg/mL
solubility ([4]; EtOH/H2O (90:10), EtOH/H2O (90:10), sample ID C1, read-out: Solubility assessment 10 vol.): > 100 mg/mL
solubility ([4]; EtOH/H2O (95:5), EtOH/H2O (95:5), sample ID C2, read-out: Solubility assessment 10 vol.): < 100 mg/mL
solubility ([4]; EtOH/H2O (98:2), EtOH/H2O (98:2), sample ID C3, read-out: Solubility assessment 10 vol.): < 100 mg/mL
solubility ([4]; EtOH/H2O (99:1), EtOH/H2O (99:1), sample ID C4, read-out: Solubility assessment 10 vol.): < 100 mg/mL
solubility ([4]; MeOH/H2O (90:10), MeOH/H2O (90:10), sample ID C5, read-out: Solubility assessment 10 vol.): > 100 mg/mL
solubility ([4]; MeOH/H2O (95:5), MeOH/H2O (95:5), sample ID C6, read-out: Solubility assessment 10 vol.): > 100 mg/mL
solubility ([4]; MeOH/H2O (98:2), MeOH/H2O (98:2), sample ID C7, read-out: Solubility assessment 10 vol.): < 100 mg/mL
solubility ([4]; MeOH/H2O (99:1), MeOH/H2O (99:1), sample ID C8, read-out: Solubility assessment 10 vol.): < 100 mg/mL
solubility ([4]; anhydrous ethyl acetate, Ethyl acetate (anhydrous), sample ID C9, read-out: Solubility assessment 10 vol.): < 100 mg/mL
solubility ([4]; anhydrous ethyl acetate, Ethyl acetate (anhydrous), sample ID C9, read-out: Solubility assessment 20 vol): < 50 mg/mL
solubility ([4]; anhydrous ethyl acetate, Ethyl acetate (anhydrous), sample ID C9, read-out: Solubility assessment 30 vol): < 33.3 mg/mL
solubility ([4]; water-saturated ethyl acetate, Water-saturated ethyl acetate, sample ID C10, read-out: Solubility assessment 10 vol.): < 100 mg/mL
solubility ([4]; water-saturated ethyl acetate, Water-saturated ethyl acetate, sample ID C10, read-out: Solubility assessment 20 vol): < 50 mg/mL
solubility ([4]; water-saturated ethyl acetate, Water-saturated ethyl acetate, sample ID C10, read-out: Solubility assessment 30 vol): < 33.3 mg/mL
Compound: CCNCCc1ccc(CN(CC)c2cc(OC)ccc2[C@@H]2CCc3cc(O)ccc3C2)cc1.Cl.Cl [amorphous RAD1901-2HCl]
